Laboratory results taken from PubChem BioAssay (NCI).
“And” between values parts separate entries of the source, which are not always exact repeats. Identical values can stand only once.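 Grown in 96-well plates, cells were treated for 48 hours with each compound at five concentrations. Insufficient inhibition: endpoint recorded as highest concentration tested. The concentration for 50% growth inhibition is given as GI50. TGI: concentration producing complete growth inhibition.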

What was measured:
Assay in all cases: NCI tumour cell line growth inhibition, 48 h
[1] = system: LOX IMVI melanoma
[2] = system: KM12 colon
[3] = system: HCT-15 colon
[4] = system: HCT-116 colon
[5] = system: UACC-62 melanoma
[6] = system: ACHN renal
[7] = system: MALME-3M melanoma
[8] = system: A549 NSCLC
[9] = system: IGROV1 ovarian
[10] = system: OVCAR-4 ovarian

Structure (SMILES) | TGI [1] | TGI [2] | TGI [3] [µM] | TGI [4] [µM] | TGI [5] | TGI [6] [µM] | TGI [7] | TGI [8] [µM] | TGI [9] [µM] | TGI [10] | GI50 [1] [µM] | GI50 [2] [µM] | GI50 [10] | GI50 [3] [µM] | GI50 [4] [µM] | GI50 [5] [µM] | GI50 [6] [µM] | GI50 [7] [µM] | GI50 [8] [µM] | GI50 [9] [µM]
CC(=O)CCCCCCCCCCCC[C@@H]1CC[C@H](C)[C@H](O)N1 | > 100 µM | > 100 µM | > 100 | > 100 | > 100 µM | > 100 | > 100 µM | > 100 | > 100 | – | – | – | – | – | – | – | – | – | – | –
Clc1ccc(-n2nnc(C3=NCCN3)c2-c2ccccc2)cc1 | > 100 µM | > 100 µM | > 100 | > 100 | > 100 µM | > 100 | > 100 µM | > 100 | > 100 | > 100 µM | – | – | – | – | – | – | – | – | – | –
O=C1C=C[C@@]23CC1C(O)C[C@H]2C=Cc1ccccc13 (stereo not given in full) | > 100 µM | > 100 µM | > 100 | > 100 | > 100 µM | > 100 | > 100 µM | > 100 | > 100 | > 100 µM | – | – | – | – | – | – | – | – | – | –
COCCn1cc(-c2csc(-c3c[nH]c4ccccc34)n2)c2cccnc21 | > 100 µM | > 100 µM | > 100 | > 100 | > 100 µM | > 100 | > 100 µM | > 100 | > 100 | > 100 µM | 3.96 | 0.762 | 1.76 µM | 2.34 | 3.63 | 4.58 | 5.59 | 3.58 | 7.1 | 2.53
COC(=O)C1=C(C)N(NC(N)=O)C2(N)N(NC(N)=O)C(C)=C(C(=O)OC)C12C(=O)OC (stereo not given) | > 100 µM | > 10 µM | > 100 | > 100 | > 100 µM | > 100 | > 100 µM | > 100 | > 100 | > 100 µM | – | – | – | – | – | – | – | – | – | –
N#Cc1c(C(=O)c2ccccc2)cnn1-c1ccccc1 | > 25 µM | > 25 µM | > 25 | > 25 | > 25 µM | > 25 | > 25 µM | > 25 | > 25 | > 25 µM | > 25 | > 25 | > 25 µM | > 25 | > 25 | > 25 | > 25 | > 25 | > 25 | > 25
Clc1ccc(Cl)c2[s+]snc12 | > 100 µM | > 100 µM | > 65.5 | > 54.9 | > 100 µM | > 100 | 99.5 µM | > 100 | > 100 | > 100 µM | – | – | – | – | – | – | – | – | – | –
Cc1ccc(C(CN(C)C)C(=O)c2ccccc2)cc1 (stereo not given) | 2.27 µM | 14.7 µM | 4.21 | 1.83 | 4.33 µM | 3.18 | 8.89 µM | 38 | 11.5 | 13 µM | 1.01 | 4 | 2.76 µM | 1.7 | 0.514 | 1.85 | 1.63 | 2.74 | 16.7 | 3.62
CC12CCC3C(CC=C4CC(O)CCC43C)C1C/C(=C\N1CCCC1)C2=O (stereo not given) | > 100 µM | > 100 µM | > 100 | > 100 | > 100 µM | > 100 | > 100 µM | > 100 | > 100 | > 100 µM | > 100 | 73.3 | 61 µM | 87.1 | 69.3 | 41.2 | 91.8 | 71.5 | > 100 | 51.8
N#CC(C(=O)/C(=N/N)C(C#N)c1ccc(Cl)cc1)c1ccc(Cl)cc1 (stereo not given) | > 100 µM | > 100 µM | > 100 | > 100 | > 100 µM | > 100 | > 100 µM | > 100 | > 100 | > 100 µM | – | – | – | – | – | – | – | – | – | –
COc1ccc(C=C2C(=O)OC(C)(C)OC2=O)cc1OC | – | > 100 µM | > 100 | – | > 100 µM | > 100 | > 100 µM | > 100 | > 100 | > 100 µM | – | – | – | – | – | – | – | – | – | –
COc1c(O)c2c(c3cc(C(=O)N4CCc5c4c(O)c(OC)c4[nH]c(C(=O)N6CC7CC78C6=CC(=O)c6[nH]cc(C)c68)cc54)[nH]c13)CCN2C(N)=O (stereo not given) | 2.61 nM and 287 nM and 0.00412 µg/mL | 9.37 nM and 929 nM and 0.0348 µg/mL | – | – | 5.3 nM and 688 nM and 0.00323 µg/mL | 0.0142 | 5.23 nM and 1.02 µM and 0.00419 µg/mL | – | > 100 | 2.91 µM and 0.0729 µg/mL | – | – | 420 nM and 0.0198 µg/mL | 0.157 | – | – | – | – | – | 10.8
Cc1ccc(NC(=O)CC2C(=O)Nc3ccccc3S2=O)cc1C (stereo not given) | > 100 µM | – | > 100 | > 100 | > 100 µM | > 100 | > 100 µM | > 100 | > 100 | 34.3 µM | – | – | – | – | – | – | – | – | – | –
C[C@@H]1C=C(CCCCCCCCCCC[C@H](O)[C@@H]2CCC(=O)O2)C(=O)O1 | – | 65 µM | > 100 | > 100 | 85.7 µM | 49.3 | 46.6 µM | > 100 | 67.9 | > 100 µM | – | 23.6 | > 100 µM | 25.5 | 28 | 21.2 | 17.9 | 19.1 | 38.1 | 13.7
CC(=O)Nc1ccc(C(=O)N2N=C(C)/C(=C/c3ccccc3O)C2=O)cc1 | > 100 µM | > 100 µM | > 100 | > 100 | – | > 100 | > 100 µM | > 100 | – | > 100 µM | – | – | – | – | – | – | – | – | – | –
CCN1C2=NC(=O)N(C)C(=O)C2(Cl)C(C(SC)S(=O)(=O)c2ccc(C)cc2)c2ccccc21 (stereo not given) | > 100 µM | – | – | 53.6 | > 100 µM | – | > 100 µM | > 100 | > 100 | 58.9 µM | – | – | – | – | – | – | – | – | – | –
Oc1ccc(/C=N\Nc2ccccn2)c(O)c1 | > 100 µM | 20.4 µM | > 100 | > 100 | – | 2.82 | – | > 100 | 3.64 | > 100 µM | 1.96 | 1.51 | 2.87 µM | 0.533 | 1.7 | – | 0.338 | – | 2.51 | 0.638
